Reference: article PMC10722540, “Red Wine Inspired Chemistry: Hemisynthesis of Procyanidin Analogs and Determination of Their Protein Precipitation Capacity, Octanol–Water Partition, and Stability in Phosphate-Buffered Saline” (Journal of Agricultural and Food Chemistry, 2023)
Where two headings read alike, the source gives them in different places.

Tests used:
[1] = Octanol–water partition, shake-flask method; type: physicochemical; conditions: 200 μM, n-octanol/water, 2 h mixing, SE in parentheses; for logP at 2 h: read-out: log P (log10KOW)
Method: The shake-flask method was done using 2 mL Eppendorf tubes and three replicates. […] After mixing, aliquots of 500 μL were transferred to new Eppendorf tubes, and 500 μL of n-octanol was added that had been saturated with water. The solvent systems were mixed in a vortex mixer for 2 h, and then both the water and the n-octanol layers as well as the initial water solution were analyzed by UPLC–DAD using the shorter phenyl column (section 2.4). The chromatograms were integrated using TargetLynx software (version 4.2), and the octanol–water partition coefficient, log P, was calculated as the log10 of the ratio of area in n-octanol phase to the area in water phase. Recovery % was calculated by summing the areas in both phases and dividing the summation with the area measured from the initial water phase.

[2] = Stability in phosphate buffered saline; type: physicochemical; conditions: for half-life at 150 μM: phosphate buffered saline, read-out: half-life (t1/2); for half-life at 150 μM / half-life (t1/2): first-order kinetics, UV 280 nm, 150 μM; for stability in phosphate buffered saline (in words): first time point, approx. 15 min after adding PBS; for starting material remaining (in words): after 26 h incubation in PBS
Method: The stabilities of the compounds were measured in PBS, which was prepared from commercially available tablets that were dissolved in ultrapure water. The phosphate concentration was 0.01 M, the pH was 7.4, and the potassium and sodium chloride concentrations were 0.0027 and 0.137 M, respectively. […] The compounds were dissolved in 2 mL of the PBS solution in Eppendorf tubes, vortexed for approximately 15 min, and filtered through a 0.2 μm PTFE filter to a 2 mL UPLC vial. The solutions were analyzed with the UPLC-DAD-HESI-Orbitrap-MS instrument using the longer phenyl column (section 2.4), and repeated injections were done every 47.5 min for approximately 12 h. […] The UV chromatograms at 280 nm were integrated using the QuanBrowser module in Xcalibur software (version 4.1.31.9), and the main degradation products were identified in QualBrowser by their high-resolution mass spectra and UV spectra. With each compound, the measured areas were transformed to proportional areas by dividing all areas with the initial area in the first injection of the time series, and the data was further loge transformed and fitted with first-order linear regression curves. The regression curves were supplemented with 95% confidence intervals to visualize the uncertainty in the fitted curves. The half-lives were calculated from the slope (k) parameters of the linear regression model using the following equation: [drawing 1]

[3] = target: T1, bovine serum albumin (BSA) (Bos taurus, UniProt P02769); assay: Protein precipitation capacity (PPC), turbidimetric well-plate reader assay with BSA, log-normal dose–response model; type: biochemical; conditions: SE in parentheses; for ED90 (mM) / EC50: BSA 0.1 mM; for EC50: concentration giving 50% of maximal absorbance (420 nm haze), read-out: ED50 (the source's name); for slope: slope parameter of log-normal dose–response model
T1 construct: purchased Sigma-Aldrich (MO, USA)
T1 sequence (P02769 25-607): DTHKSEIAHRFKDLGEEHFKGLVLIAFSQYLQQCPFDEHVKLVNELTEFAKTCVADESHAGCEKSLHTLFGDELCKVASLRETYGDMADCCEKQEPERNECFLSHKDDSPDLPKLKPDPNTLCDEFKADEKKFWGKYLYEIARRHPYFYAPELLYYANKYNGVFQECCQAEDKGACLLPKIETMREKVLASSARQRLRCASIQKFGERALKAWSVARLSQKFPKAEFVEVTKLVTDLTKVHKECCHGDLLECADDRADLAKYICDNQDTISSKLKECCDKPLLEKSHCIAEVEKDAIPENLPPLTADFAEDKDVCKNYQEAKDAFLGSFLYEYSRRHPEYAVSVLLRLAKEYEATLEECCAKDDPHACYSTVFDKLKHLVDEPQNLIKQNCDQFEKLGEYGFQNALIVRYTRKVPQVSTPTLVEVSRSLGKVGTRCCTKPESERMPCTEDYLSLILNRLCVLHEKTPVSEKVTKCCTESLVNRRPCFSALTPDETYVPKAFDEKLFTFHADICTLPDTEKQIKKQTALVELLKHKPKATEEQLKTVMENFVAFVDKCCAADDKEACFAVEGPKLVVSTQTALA
Method: (§1) PPC was measured by using the turbidimetric well-plate reader assay of Engström et al. (2019), with few modifications to the volumes of the reactants and to the number of replicates, for instance. The analyzes of the supernatants were done following Engström et al. (2022).[21] Briefly, 75 μL of BSA solution and 75 μL of the solutions of compounds 2–14 were pipetted to well plates, and the intensity of the forming haze was measured periodically at 420 nm using a well-plate reader. The PPC of the PC analogue 1 was not measured because it was not soluble in suitable solvents. The reactions were monitored for 30 min, and the highest intensities were recorded. A single background measurement was done at each concentration with all the components in the wells but the BSA. The reactions were done in triplicates (and in duplicates with PC C1), and the concentrations of the compounds 2–14 in the reaction mixtures were 0.25 0.65, 1.05, 1.45, 1.85, and 2.25 mM. The concentration of the BSA was kept constant at 0.1 mM. Therefore, the tested molar ratios to BSA were 2.5:1, 6.5:1, 10.5:1, 14.5:1, 18.5:1, and 22.5:1. After the 30 min, the supernatants and precipitates of the replicates were combined in a 1.5 mL Eppendorf tube and separated by centrifuging. The supernatants were then analyzed by UPLC–DAD using the shorter phenyl column (section 2.4) to quantify the leftover compounds 2–14 and BSA. Leftover BSA was quantified using a separately prepared linear calibration curve (1–125 μM), and the compounds 2–14 were quantified by analyzing the background solutions from the well-plate reader assay and constructing a calibration curve from these analyzes. BSA was quantified at 280 nm and compounds 2–14 at 280–320 nm. The wavelength of maximal UV absorption for compounds 2–14 could not be utilized in quantification because the diode array detector was saturated at the optimal wavelengths due to the high concentrations used in the well-plate reader assay. Therefore, off-optimal wavelengths were chosen for quantification separately for each compound 2–14 to reduce intensities and to obtain linear fits for calibration curves.
All statistical analyzed were performed with R (version 4.2.2) in the integrated development environment Rstudio (version 2022.12.0.353).[23],[24] The PPC data was fitted with a dose–response model using the package drc.[25] Various models, e.g., logit and log-normal models, were compared using the mselect function, and the best fitting model was chosen based on the Akaike’s information criterion and residual error when comparing all models, and log-likelihood was used when comparing nested models. All compounds were assumed to have the same upper and lower asymptotes; the former was estimated from the experimental data, and the latter was fixed at zero.

[4] = Octanol–water partition, shake-flask method; type: physicochemical; conditions: for logP / KOW: tentative values, experiment shorter than two hours because the compounds degraded; for logP: read-out: log P (log10KOW)
[5] = target: T1, bovine serum albumin (BSA); assay: UPLC–DAD analysis of supernatants from the PPC experiment (proportion of precipitated BSA); type: biochemical
Method: as §1

[6] = pH 7.4, PBS pH 7.4, 0.01 M phosphate

| KOW [1] | logP at 2 h [1] | half-life at 150 μM [2, 6] [h] | ED90 (mM) [3] | EC50 [3] [µM] | slope [3] | half-life (t1/2) ([2]; PBS pH 7.4, 0.01 M phosphate) [h] | logP ([4]; n-octanol/water) | KOW [4] | activity based on the proportions of precipitated BSA (in words) [5] | proportion of BSA precipitated ([5]; highest tested concentration of 2.25 mM (molar ratio to BSA 23:1)) | Compound | stability in phosphate buffered saline (in words) [2] | log P (log10KOW) ([4]; 200 μM, n-octanol/water, 2 h mixing, SE in parentheses) | starting material remaining (in words) [2] | half-life at 150 μM ([2]; PBS pH 7.4, 0.01 M phosphate) [h] |
| --- | --- | --- | --- | --- | --- | --- | --- | --- | --- | --- | --- | --- | --- | --- | --- |
| 5.00 (0.05) | 0.7 | 3.45 | – | – | – | – | – | – | – | – | Oc1ccc([C@H]2Oc3c(Cc4c(O)cc(O)c5c4O[C@H](c4ccc(O)c(O)c4)[C@@H](O)C5)c(O)cc(O)c3C[C@@H]2O)cc1O [Compound 1] | – | – | – | – |
| 1.46 (0.01) | 0.16 | 2.05 | 3.45 (0.10) mM | 2180 | 2.80 (0.13) | – | – | – | – | – | Oc1ccc([C@H]2Oc3c(Cc4c(O)cc(O)c5c4O[C@H](c4ccc(O)c(O)c4)[C@H](O)C5)c(O)cc(O)c3C[C@H]2O)cc1O [Compound 2, Epicatechin–methylene–epicatechin] | – | – | – | – |
| 0.04 (0.00) | -1.37 | 6.27 | 3.34 (0.09) mM | 2030 | 2.57 (0.10) | – | – | – | – | – | O=C(O)C(c1c(O)cc(O)c2c1O[C@H](c1ccc(O)c(O)c1)[C@@H](O)C2)c1c(O)cc(O)c2c1O[C@H](c1ccc(O)c(O)c1)[C@@H](O)C2 [Compound 3] | – | – | – | – |
| 0.02 (0.00) | -1.78 | 7 | 3.30 (0.08) mM | 2030 | 2.64 (0.11) | – | – | – | – | – | O=C(O)C(c1c(O)cc(O)c2c1O[C@H](c1ccc(O)c(O)c1)[C@H](O)C2)c1c(O)cc(O)c2c1O[C@H](c1ccc(O)c(O)c1)[C@H](O)C2 [Compound 4, Epicatechin–carboxymethine–epicatechin] | – | – | – | – |
| 5.28 (0.02) | 0.72 | 8.85 | 2.58 (0.06) mM | 1390 | 2.08 (0.07) | – | – | – | – | – | Oc1ccc([C@H]2Oc3c(c(O)cc(O)c3C(c3ccco3)c3c(O)cc(O)c4c3O[C@H](c3ccc(O)c(O)c3)[C@@H](O)C4)C[C@@H]2O)cc1O [Compound 5, Catechin–furanmethine–catechin] | – | – | – | – |
| 2.08 (0.00) | 0.32 | 5.82 | 3.32 (0.09) mM | 1830 | 2.15 (0.08) | – | – | – | – | – | Oc1ccc([C@H]2Oc3c(c(O)cc(O)c3C(c3ccco3)c3c(O)cc(O)c4c3O[C@H](c3ccc(O)c(O)c3)[C@H](O)C4)C[C@H]2O)cc1O [Compound 6, Epicatechin–furanmethine–epicatechin] | – | – | – | – |
| 0.79 (0.00) | -0.1 | 0.917 | 2.53 (0.07) mM | 1290 | 1.90 (0.06) | 0.917 to 1.4 | – | – | – | – | Oc1ccc(C(c2c(O)cc(O)c3c2O[C@H](c2ccc(O)c(O)c2)[C@@H](O)C3)c2c(O)cc(O)c3c2O[C@H](c2ccc(O)c(O)c2)[C@@H](O)C3)cc1O [Compound 7, Catechin–catecholmethine–catechin] | – | – | – | – |
| 0.34 (0.00) | -0.47 | 1.4 | 2.61 (0.06) mM | 1500 | 2.30 (0.08) | 0.917 to 1.4 | – | – | – | – | Oc1ccc(C(c2c(O)cc(O)c3c2O[C@H](c2ccc(O)c(O)c2)[C@H](O)C3)c2c(O)cc(O)c3c2O[C@H](c2ccc(O)c(O)c2)[C@H](O)C3)cc1O [Compound 8, Epicatechin–catecholmethine–epicatechin] | – | – | – | – |
| – | – | < 0.25 | 2.61 (0.06) mM | 1400 | 2.04 (0.06) | – | -0.85 | 0.14 (0.01) | – | – | Oc1ccc([C@H]2Oc3c(c(O)cc(O)c3C(c3cc(O)c(O)c(O)c3)c3c(O)cc(O)c4c3O[C@H](c3ccc(O)c(O)c3)[C@@H](O)C4)C[C@@H]2O)cc1O [Compound 9] | completely degraded already at the first time point | – | – | – |
| – | – | < 0.25 | 2.41 (0.05) mM | 1440 | 2.48 (0.08) | – | -1.18 | 0.07 (0.00) | – | – | Oc1ccc([C@H]2Oc3c(c(O)cc(O)c3C(c3cc(O)c(O)c(O)c3)c3c(O)cc(O)c4c3O[C@H](c3ccc(O)c(O)c3)[C@H](O)C4)C[C@H]2O)cc1O [Compound 10] | completely degraded already at the first time point | – | – | – |
| 0.16 (0.00) | -0.79 | 8.98 | – | – | – | – | – | – | practically inactive | – | Oc1cc(O)c2c(c1)O[C@H](c1ccc(O)c(O)c1)[C@@H](O)[C@@H]2c1c(O)cc(O)c2c1O[C@H](c1ccc(O)c(O)c1)[C@@H](O)C2 [Compound 11, PC B3, reference compound] | – | – | – | – |
| 0.13 (0.00) | -0.87 | 11.6 | – | – | – | – | – | – | practically inactive | – | Oc1cc(O)c2c(c1)O[C@H](c1ccc(O)c(O)c1)[C@H](O)[C@H]2c1c(O)cc(O)c2c1O[C@H](c1ccc(O)c(O)c1)[C@H](O)C2 [Compound 12, PC B2, reference compound] | – | – | – | – |
| 0.07 (0.00) | -1.17 | 30.9 | 1.57 (0.06) mM | 770 | 1.79 (0.08) | – | – | – | – | almost all | Oc1cc(O)c2c(c1)O[C@H](c1ccc(O)c(O)c1)[C@H](O)[C@H]2c1c(O)cc(O)c2c1O[C@H](c1ccc(O)c(O)c1)[C@H](O)[C@H]2c1c(O)cc(O)c2c1O[C@H](c1ccc(O)c(O)c1)[C@H](O)C2 [Compound 13, PC C1, reference compound] | – | – | – | – |
| – | – | – | – | – | – | – | – | – | – | – | Oc1cc(O)c2c(c1)O[C@H](c1ccc(O)c(O)c1)[C@H](O)C2 [Compound 16, epicatechin, reference compound] | – | – | majority of the starting materials remained | 15 |

| Compound | KOW [1] | logP at 2 h [1] | half-life at 150 μM [2, 6] [h] | ED90 (mM) [3] | EC50 [3] [µM] | slope [3] | half-life (t1/2) ([2]; PBS pH 7.4, 0.01 M phosphate) [h] | logP ([4]; n-octanol/water) | KOW [4] | activity based on the proportions of precipitated BSA (in words) [5] | proportion of BSA precipitated ([5]; highest tested concentration of 2.25 mM (molar ratio to BSA 23:1)) | stability in phosphate buffered saline (in words) [2] | log P (log10KOW) ([4]; 200 μM, n-octanol/water, 2 h mixing, SE in parentheses) | starting material remaining (in words) [2] | half-life at 150 μM ([2]; PBS pH 7.4, 0.01 M phosphate) [h] |
| --- | --- | --- | --- | --- | --- | --- | --- | --- | --- | --- | --- | --- | --- | --- | --- |
| Oc1cc(O)c2c(c1)O[C@H](c1ccc(O)c(O)c1)[C@@H](O)C2 [Compound 15, catechin, reference compound] | 2.61 (0.03) | – | – | – | – | – | – | – | – | – | – | – | 0.42 (0.00) | majority of the starting materials remained | 22.3 |
